Data as given in PubChem BioAssay AID2060884 (Molecular Pharmacology Branch, DTP, NCI, 2025).
One block for each compound: values may come before it.

Tested on: NCI-H929 complex spheroids, viability % test/control
Experiment: Anticancer human tumor NCI-H929 cell line growth inhibition [RAS];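 note: compound exposure lasted seven days before viability was read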;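 for viability, T/C: 100% = DMSO vehicle control viability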
Conditions: for IC50: curve of first compound; for viability, T/C: stronger effect = lower value
In short: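 Tumour cells grown as complex spheroids with HUVEC endothelial cells and mesenchymal stem cells, treated with RAS pathway inhibitor combinations. Each agent spans half-log steps from near clinical Cmax, or 10 microM where Cmax is unknown.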

[1] = second compound 0.000949 µM, first compound 0.0316 µM
[2] = second compound 0.000949 µM, first compound 0.1 µM
[3] = second compound 0.000949 µM, first compound 0.316 µM
[4] = second compound 0.000949 µM, first compound 1 µM
[5] = second compound 0.000949 µM, first compound 3.16 µM
[6] = second compound 0.000949 µM, first compound 10 µM
[7] = second compound 0.003 µM, first compound 0.0316 µM
[8] = second compound 0.003 µM, first compound 0.1 µM
[9] = second compound 0.003 µM, first compound 0.316 µM
[10] = second compound 0.003 µM, first compound 1 µM
[11] = second compound 0.003 µM, first compound 3.16 µM
[12] = second compound 0.003 µM, first compound 10 µM
[13] = second compound 0.00949 µM, first compound 0.0316 µM
[14] = second compound 0.00949 µM, first compound 0.1 µM
[15] = second compound 0.00949 µM, first compound 0.316 µM
[16] = second compound 0.00949 µM, first compound 1 µM
[17] = second compound 0.00949 µM, first compound 3.16 µM
[18] = second compound 0.00949 µM, first compound 10 µM
[19] = second compound 0.03 µM, first compound 0.0316 µM
[20] = second compound 0.03 µM, first compound 0.1 µM
[21] = second compound 0.03 µM, first compound 0.316 µM
[22] = second compound 0.03 µM, first compound 1 µM
[23] = second compound 0.03 µM, first compound 3.16 µM
[24] = second compound 0.03 µM, first compound 10 µM
[25] = second compound 0.0949 µM, first compound 0.0316 µM
[26] = second compound 0.0949 µM, first compound 0.1 µM
[27] = second compound 0.0949 µM, first compound 0.316 µM
[28] = second compound 0.0949 µM, first compound 1 µM
[29] = second compound 0.0949 µM, first compound 3.16 µM
[30] = second compound 0.0949 µM, first compound 10 µM
[31] = second compound 0.3 µM, first compound 0.0316 µM
[32] = second compound 0.3 µM, first compound 0.1 µM
[33] = second compound 0.3 µM, first compound 0.316 µM
[34] = second compound 0.3 µM, first compound 1 µM
[35] = second compound 0.3 µM, first compound 3.16 µM
[36] = second compound 0.3 µM, first compound 10 µM

IC50 (second compound 0.000949 µM): > 10000 nM
IC50 (second compound 0.003 µM): > 10000 nM
IC50 (second compound 0.00949 µM): > 10000 nM
IC50 (second compound 0.03 µM): > 10000 nM
IC50 (second compound 0.0949 µM): > 10000 nM
IC50 (second compound 0.3 µM): > 10000 nM
SMILES: C[C@@H](NC(=O)c1ncnc(N)c1Cl)c1ncc(C(=O)Nc2cc(C(F)(F)F)c(Cl)cn2)s1 + CCn1c(-c2cccnc2C(C)OC)c2c3cc(ccc31)N1CCOC(CC(NC(=O)C(C(C)C)N(C)C(=O)C3(F)CCN(C(=O)C#CC(C)(C)N(C)C)CC3)C(=O)N3CCCC(N3)C(=O)OCC(C)(C)C2)C1
viability, T/C [1]: 109%
viability, T/C [2]: 101%
viability, T/C [3]: 105%
viability, T/C [4]: 94.4%
viability, T/C [5]: 98.9%
viability, T/C [6]: 103%
viability, T/C [7]: 103%
viability, T/C [8]: 107%
viability, T/C [9]: 99.3%
viability, T/C [10]: 93.1%
viability, T/C [11]: 100%
viability, T/C [12]: 104%
viability, T/C [13]: 99.7%
viability, T/C [14]: 102%
viability, T/C [15]: 102%
viability, T/C [16]: 92.3%
viability, T/C [17]: 102%
viability, T/C [18]: 104%
viability, T/C [19]: 98.8%
viability, T/C [20]: 105%
viability, T/C [21]: 99.1%
viability, T/C [22]: 92.6%
viability, T/C [23]: 101%
viability, T/C [24]: 104%
viability, T/C [25]: 104%
viability, T/C [26]: 101%
viability, T/C [27]: 94.8%
viability, T/C [28]: 92.3%
viability, T/C [29]: 96.2%
viability, T/C [30]: 105%
viability, T/C [31]: 106%
viability, T/C [32]: 105%
viability, T/C [33]: 102%
viability, T/C [34]: 87.4%
viability, T/C [35]: 92.5%
viability, T/C [36]: 107%

IC50 (second compound 0.000949 µM): 1310 nM
IC50 (second compound 0.003 µM): 1430 nM
IC50 (second compound 0.00949 µM): 1640 nM
IC50 (second compound 0.03 µM): 1450 nM
IC50 (second compound 0.0949 µM): 1200 nM
IC50 (second compound 0.3 µM): 986 nM
SMILES: CC(C)NCC(C(=O)N1CCN(c2ncnc3c2C(C)CC3O)CC1)c1ccc(Cl)cc1 (stereo unspecified) + CCn1c(-c2cccnc2C(C)OC)c2c3cc(ccc31)N1CCOC(CC(NC(=O)C(C(C)C)N(C)C(=O)C3(F)CCN(C(=O)C#CC(C)(C)N(C)C)CC3)C(=O)N3CCCC(N3)C(=O)OCC(C)(C)C2)C1
viability, T/C [1]: 106%
viability, T/C [2]: 96.4%
viability, T/C [3]: 98.7%
viability, T/C [4]: 59.4%
viability, T/C [5]: 16.5%
viability, T/C [6]: 2.67%
viability, T/C [7]: 99.5%
viability, T/C [8]: 101%
viability, T/C [9]: 95%
viability, T/C [10]: 65.4%
viability, T/C [11]: 15.5%
viability, T/C [12]: 2.08%
viability, T/C [13]: 98.6%
viability, T/C [14]: 97%
viability, T/C [15]: 99%
viability, T/C [16]: 68.7%
viability, T/C [17]: 23.8%
viability, T/C [18]: 2.36%
viability, T/C [19]: 101%
viability, T/C [20]: 100%
viability, T/C [21]: 98.5%
viability, T/C [22]: 67.7%
viability, T/C [23]: 12.6%
viability, T/C [24]: 1.6%
viability, T/C [25]: 101%
viability, T/C [26]: 102%
viability, T/C [27]: 97.4%
viability, T/C [28]: 57.4%
viability, T/C [29]: 9.37%
viability, T/C [30]: 1.65%
viability, T/C [31]: 103%
viability, T/C [32]: 103%
viability, T/C [33]: 95.1%
viability, T/C [34]: 49.6%
viability, T/C [35]: 6.6%
viability, T/C [36]: 1.34%

IC50 (second compound 0.00316 µM): > 1000 nM
IC50 (second compound 0.01 µM): > 1000 nM
IC50 (second compound 0.0316 µM): > 1000 nM
IC50 (second compound 0.1 µM): > 1000 nM
IC50 (second compound 0.316 µM): > 1000 nM
IC50 (second compound 1 µM): > 1000 nM
SMILES: C=CC(=O)Nc1cc(Nc2nccc(-c3cn(C)c4ccccc34)n2)c(OC)cc1N(C)CCN(C)C + C=CC(=O)N1CCN(c2nc(OCC3CCCN3C)nc3c(F)c(-c4nc(N)cc(C)c4C(F)(F)F)c(Cl)cc23)C(C)C1
viability, T/C (second compound 0.00316 µM, first compound 0.00316 µM): 93.4%
viability, T/C (second compound 0.00316 µM, first compound 0.01 µM): 97.7%
viability, T/C (second compound 0.00316 µM, first compound 0.0316 µM): 102%
viability, T/C (second compound 0.00316 µM, first compound 0.1 µM): 95.2%
viability, T/C (second compound 0.00316 µM, first compound 0.316 µM): 100%
viability, T/C (second compound 0.00316 µM, first compound 1 µM): 103%
viability, T/C (second compound 0.01 µM, first compound 0.00316 µM): 101%
viability, T/C (second compound 0.01 µM, first compound 0.01 µM): 100%
viability, T/C (second compound 0.01 µM, first compound 0.0316 µM): 101%
viability, T/C (second compound 0.01 µM, first compound 0.1 µM): 101%
viability, T/C (second compound 0.01 µM, first compound 0.316 µM): 99.4%
viability, T/C (second compound 0.01 µM, first compound 1 µM): 107%
viability, T/C (second compound 0.0316 µM, first compound 0.00316 µM): 95.5%
viability, T/C (second compound 0.0316 µM, first compound 0.01 µM): 99.8%
viability, T/C (second compound 0.0316 µM, first compound 0.0316 µM): 104%
viability, T/C (second compound 0.0316 µM, first compound 0.1 µM): 99.3%
viability, T/C (second compound 0.0316 µM, first compound 0.316 µM): 103%
viability, T/C (second compound 0.0316 µM, first compound 1 µM): 104%
viability, T/C (second compound 0.1 µM, first compound 0.00316 µM): 98.1%
viability, T/C (second compound 0.1 µM, first compound 0.01 µM): 101%
viability, T/C (second compound 0.1 µM, first compound 0.0316 µM): 108%
viability, T/C (second compound 0.1 µM, first compound 0.1 µM): 99.1%
viability, T/C (second compound 0.1 µM, first compound 0.316 µM): 101%
viability, T/C (second compound 0.1 µM, first compound 1 µM): 107%
viability, T/C (second compound 0.316 µM, first compound 0.00316 µM): 101%
viability, T/C (second compound 0.316 µM, first compound 0.01 µM): 104%
viability, T/C (second compound 0.316 µM, first compound 0.0316 µM): 101%
viability, T/C (second compound 0.316 µM, first compound 0.1 µM): 99.5%
viability, T/C (second compound 0.316 µM, first compound 0.316 µM): 104%
viability, T/C (second compound 0.316 µM, first compound 1 µM): 105%
viability, T/C (second compound 1 µM, first compound 0.00316 µM): 106%
viability, T/C (second compound 1 µM, first compound 0.01 µM): 106%
viability, T/C (second compound 1 µM, first compound 0.0316 µM): 107%
viability, T/C (second compound 1 µM, first compound 0.1 µM): 105%
viability, T/C (second compound 1 µM, first compound 0.316 µM): 107%
viability, T/C (second compound 1 µM, first compound 1 µM): 106%
